# Legend:
# [1] = Molar extinction coefficient of curcumin analogs (UV-visible); type: physicochemical; conditions: in M-1 cm-1 (unit assumed)
# Excerpt: Each curcumin derivative is bioconjugated to create a biopolymer that can be used as an eco-friendly dye. For example, compounds 1b and 1d can be conveniently conjugated to the lysine residues of proteins, the azide and the alkyne derivatives can be attached to proteins via the ‘click’ bioconjugation reaction. Compounds 1c and 1e have the advantage that unlike most reactive groups which are used for bioconjugation, alkyne and azide groups are stable in aqueous media (Scheme 5). The absorbance and fluorescence properties of these dyes are similar to the parent molecule.
# Reagent-grade solvents such as acetone and tetrahydrofuran were used without further purification. For High Performance Liquid Chromatography (HPLC), methylene chloride was used with Pure Solv™ solvent purification system. Curcumin was obtained from Acros-Organics. Copper acetate and sodium ascorbate were purchased from Sigma. Silica gel 60 F 254 plates for thin-layer chromatography (TLC) were purchased from Merck. Column chromatographic separations were carried out using silica gel (Fisher) with a particle size of 0.040-0.063 mm. Nuclear magnetic resonance (NMR) was recorded on Bruker Avance 600 (600 MHz) spectrometers. Mass spectra (ES-MS) were recorded on a LC/MS and Time Of Flight (TOF) mass spectrometer. U.V.-Visible spectra were recorded using a ChemStation Rev. A.10.01 from Agilent Technologies
# [2] = unmodified curcumin, background statement; cited from earlier work
# amyloid plaques = conditions: cited from earlier work
# [3] = human subjects, doses as high as 8 g of curcumin per day; cited from earlier work
# Oligodendroglioma cells = test: Apoptosis of Oligodendroglioma cells (DAPI staining); type: cell-based; conditions: 50 micro molar
# Method: The small molecule curcumin analogs including curcumin dimers, curcumin polymers and curcumin modified polymers, typical examples shown in Schemes 1-6 of the present invention can be used for the treatment of cancer. […] Oligodendroglioma cells were treated with 50 micro molar concentration of curcumin and asymmetric curcumin dimer stained with DAPPI presented.
# Very limited cell death is seen in human fibroblasts, which serve as a benign control cell line. The percentage of apoptosis is lower at higher concentrations (100 μM and more) as compared to that at 20 μM and 50 μM for all the compounds including curcumin because at higher concentration curcumin and analogs of the invention cause HOG cell necrosis. This alternate pathway of cell killing has been established via DNA laddering studies.
compound,measurement,setting,value
"COc1cc(/C=C\C(=O)CC(=O)/C=C\c2ccc(OC(=O)CCCC(=O)NCCOCCOCCOCCOCCOCCOCCN=[N+]=[N-])c(OC)c2)ccc1O [Compound 4, Mono-2-(2-(2-(2-(2-(2-(2-azidoethoxy)ethoxy)ethoxy)ethoxy)ethoxy)ethoxy)ethylcarbamoyl butanoate-Curcumin]",Molar Extinction Coeffecient,[1],26764
"C#CCOc1ccc(C=CC(=O)CC(=O)C=Cc2ccc(O)c(OC)c2)cc1OC [Compound 5, Mono-Propargyl Curcumin]",Molar Extinction Coeffecient,[1],29510
"COc1cc(/C=C\C(=O)CC(=O)/C=C\c2ccc(O)c(OC)c2)ccc1O [Curcumin, (1Z,6Z)-1,7-bis(4-hydroxy-3-methoxyphenyl)hepta-1,6-diene 3,5-dione]",water and plasma solubility,[2],poor water and plasma solubility
same,Molar Extinction Coeffecient,[1],"50,000"
same,amyloid levels and plaque burden,amyloid plaques; fed to mice with advanced amyloid accumulation,reduced amyloid levels and plaque burden
same,blood-brain barrier crossing and plaque binding,"amyloid plaques; injected, transgenic mouse model",crosses the blood-brain barrier and binds amyloid plaques
same,average peak serum concentration,[3],652.5 ng/mL
"(2-(2-(2-(2-(2-(2-(2-(4-methylene)-1H-1,2,3-triazol-1-yl)ethoxy)ethoxy)ethoxy)ethoxy)ethoxy)ethoxy)ethylcarbamoyl butanoate curcumin dimer [Compound 7]",apoptosis characterized by nuclear condensation (DAPI staining),Oligodendroglioma cells,Extensive apoptosis
same,induction of apoptosis relative to parent compound curcumin,Oligodendroglioma cells,superior in inducing apoptosis

# Reference: patent publication US9447023B2, “Curcumin and tetrahydrocurcumin derivatives” (Research Foundation of the City University of New York, priority 2006, dated 2016)
